The values below come from patent US10456405B2, “Nitric oxide-releasing prodrug molecule of substituted quinazolines” (ZHEJIANG HUAHAI PHARMACEUTICAL CO., LTD, priority 2015, dated 2019).

Data set [1] can be described thus: Release of nitric oxide in vitro (Griess reagent, nitrite). The following applies: 10^−4 mol/L tested substance, phosphate buffer pH 7.4, cysteine 5 mmol/L, 37° C., 1 h; as nitrite. Here is the method:
Experiment 1. Experimental Study on the Tested Compounds for Releasing Nitric Oxide in vitro
Experimental Procedure: • (1) Preparation of Griess Reagent: 4 g of aminobenzenesulfonamide, 0.2 g of N-naphthyl ethylene diamine hydrochloride, and 10 mL of 85% phosphoric acid solution were taken to form a solution, which is diluted to 100 mL with distilled water. • (2) Plotting of the standard curve: a serie of standard solution of 0.01, 0.03, 0.05, 0.07, 0.09, 0.2, 0.4 μg/mL of nitrite nitrogen was prepared, 10 mL of each was taken to sufficiently mix with 2.5 mL of Griess reagent, standing at room temperature for 10 min, and its absorbance value at the wavelength of 540 nm was measured. The standard curve was plotted based on the resulting data. • (3) Measuring the amount of the released NO of the tested drug: all of the tested substances were dissolved in dimethylsulfoxide (1 mL) firstly. Then phosphate buffer (pH 7.4) was slowly added dropwise, and shaken. The drug solution was diluted to 50 mL, allowing the buffer solution to contain excess cysteine (5 mmol/L), and the final concentration of the tested substances being 10^−4 mol/L; the solution was incubated at 37° C. 2 mL of the reaction solution was taken to mix with 500 μl of Griess reagent at 1 h respectively, standing at room temperature for 10 min. The absorbance value of the mixture at 540 nm was measured. Isosorbide mononitrate was used as a positive control, and H130 was used as a negative control. The amount of the released NO was represented by the amount of its oxidation product, nitrite (NO2^−).
Background: The Griess reaction detects nitrite, a stable product of nitric oxide.

Data set [2] relates to ApoA-I mRNA. Kind of data set: Regulation of ApoA-I mRNA in HepG2 cells (real-time PCR). Format: cell-based. On the set-up: key: Active: When 100 μM of the tested compound allowed ApoA-I mRNA in HepG2 cells to increase more than 15%, then the test compound was known as an ApoA active compound. The following applies: 100 μM, 48 h, relative to DMSO control. On the procedure: Experiment 5. Regulation of the Tested Compounds on ApoA-I mRNA HepG2 cells were cultured for 24 h in a 24-well plate with 400 μl of MEM medium containing 0.5% (v/v) of fetal bovine serum. Then each of the tested compounds (100 μM) and the positive control RVX-208 (100 μM) were added. The cells were cultured for another 48 h. The medium was aspirated out. After washing with 200 μl of PBS, 85 μl of cell lysis solution was added into the cells in each well. The cells were incubated at room temperature for 5 to 10 min to be completely dissolved and detached. The mRNA was extracted from the cells with a kit. The extracted mRNA were used for a real-time fluorescence quantitative PCR detection with RNA Fluorescence (RiboGreen) Quantitation Assay Kit and ApoA-I mRNA Primer-Probe Mixture from the company of Applied Biosystems.
After obtaining the Ct values, the induction fold of each test compound relative to DMSO control was calculated. The induction fold was used to reflect the ability of regulating ApoA-I mRNA for the tested compounds. When 100 μM of the tested compound allowed ApoA-I mRNA in HepG2 cells to increase more than 15%, then the test compound was known as an ApoA active compound.
On the technique in general: Real-time PCR tracks product formation cycle by cycle.

Data set [3] can be described thus: Plasma stability in vitro, human plasma. The following applies: for Content of Tested Substance (n = 2): human plasma, 2 μM, 37° C., in % (unit assumed).
Method: (§1) Experimental method: The tested compounds (2 μM) were added into mouse or human plasma, and incubated at 37° C. Samples were taken at 0, 10, 30, 60 and 120 min respectively. The reaction was stopped by adding a stop agent. The mixture was sufficient shaken, and centrifuged at 4000 rpm for 10 min at 4° C. The supernatant was taken. The concentrations of the tested compounds and their metabolite (H130) in the supernatant were measured by LC-MS/MS.
Data set [4] can be described thus: Plasma stability in vitro, mouse plasma. Particulars: CD-1 mice plasma, 2 μM, 37° C., in % (unit assumed).
Method: as §1
For data set [5] the following is noted: rat, in vivo.
Method: Experimental method: Intravenous injection solutions (the administration concentrations of the tested compounds were 1 mg/kg) and oral gastric perfusates (the administration concentrations of the test compounds were 5 mg/kg) of the test compounds were prepared, and intravenously and orally administered to three SD rats, respectively. The concentrations of the whole blood for H130 at 0.083 h, 0.25 h, 0.5 h, 1 h, 2 h, 4 h, 8 h, and 24 h after administration were determined by LC-MS/MS, respectively. The pharmacokinetic parameters were compared by a drug-time curve. Sample pretreatment: 150 μL of the whole blood to be tested was aspirated accurately. 600 μL of internal standard solution (diluted to 0.5 μg/mL with methanol) was added, sufficiently mixed by a vortex mixer, and centrifuged at 13000 r/min for 20 min at 4° C. 3 μL of the supernatant was taken into a sample vial.
Chromatographic conditions: C18 reversed-phase chromatographic column; gradient elution with mobile phase A: water/acetonitrile (v:v=95:5) with 0.025% of formic acid and 1 mM of ammonium acetate added thereto, and mobile phase B: acetonitrile/water (v:v=95:5) with 0.025% of formic acid and 1 mM of ammonium acetate added thereto.
The test system of data set [6] is apoE−/− mice. Kind of data set: apoE−/− mouse atherosclerosis model, high-fat diet 10 weeks. The format is in vivo. From the text: Experimental method: 36 eight-week-old male apoE-/- mice were selected and randomly divided into a blank administration group, an […] administration group, an […] administration group, an […] administration group, an […] administration group, and an […] administration group, 6 mice per group. The mice in each group were fed with high-fat diet for 10 weeks. At the beginning of the high-fat feeding, the mice in each group were administrated. Each tested compound was intragastric administered at the dose of 150 mg/kg twice a day. The blank administration group was given corresponding dose of saline. […] After the blood was taken, the serum, heart, and aorta were isolated. The levels of total cholesterol (TC), high density lipoprotein cholesterol (HDL-C), and low density lipoprotein cholesterol (LDL-C) in the serum of the mice in each group were measured by automatic biochemical analyzer. The ApoA1 expression level was detected with an ApoA1 kit. The content of NO in the serum of the mice was determined with a total NO test kit (Beyotime). The NOS activities of the heart, aorta, and serum were determined with an NOS test kit (Beyotime). The content of eNOS was calculated by the difference between the measured values determined before and after adding eNOS inhibitor L-NAME (Beyotime).

A short description of data set [7]: Release of HNO (headspace gas chromatography of nitrous oxide). On the procedure: Experiment 2. Experimental study on the tested compounds for releasing HNO HNO rapidly dimerizes and dehydrates to produce nitrous oxide in aqueous solution. In the experiment of detecting HNO, gas chromatographic headspace analysis is generally used to determine the amount of the released nitrous oxide, thereby indirectly detect the level of releasing HNO of the compound.
Experimental procedure: Each of the tested compounds was prepared to 20 mg/mL of mother liquor with DMF. Prior to the start of the experiment, 50 μL of drug mother liquor was placed into a 20 mL headspace sample vial. The tested compound was diluted by adding 5 mL of PBS buffer with pH 7.4. The temperature of the resulting sample was kept at 37° C. under argon gas for 90 min. Then the top gas was extracted for gas chromatographic analysis of nitrous oxide by using Angeli's Salt as a positive compound in the experiment.

For data set [8], the system named is db/db mice. Put plainly: Serum NO and heart eNOS in db/db mice after oral gavage. Format: in vivo. Particulars: blank = 100, oral gavage 150 mg/kg (isosorbide mononitrate 5 mg/kg), 1 h after administration (H101: 2 h). The source says:
Experimental method: 25 eight-week-old db/db mice (strain: BKS.Cg−+Leprdb/+leprdb/JclSlac; grade: SPF; gender: male; source: Shanghai SLAC Laboratory Animal Co., Ltd.) were selected. 3 of them were selected as the blank administration control. 2 mice were used as the positive drug control (isosorbide mononitrate). The remaining 20 mice were randomly divided into 5 groups, 4 mice per group, which are H101 administration group, H111 administration group, H116 administration group, H119 administration group, and H130 administration group. The tested compounds of the positive drug control group and each administration group were dissolved in DMSO. Then PEG400 was added. The mixture was shaken and mixed thoroughly. At last, 10% of HP-β-CD was added. The mixture was shaken and mixed thoroughly. The ratio of each solvent was DMSO: PEG400:10% of HP-β-CD=5:67.5:27.5. The administration group was administered by oral gavage at the dose of 150 mg/kg. The positive drug control group was administered at the dose of 5 mg/kg. The mice in the H101 administration group were sacrificed at 2 h after the administration. The mice in the remaining administration groups were sacrificed at 1 h after the administration. The blood was collected respectively into 1.5 mL centrifuge tube, standing at room temperature for more than 30 min, and then centrifuged (3000 rpm, 10 min). The supernatant serum was aspirated, and stored at −80° C. for testing. After the blood was collected, the heart was cut with the thoracic aorta. Three parts of the heart were weighed and placed into cryovials, rapidly frozen in liquid nitrogen, and cryopreserved at −80° C. for testing. The aorta and aortic arch were weighed, rapidly frozen in liquid nitrogen, and cryopreserved at −80° C. for testing. The content of NO in the serum of the […] mice was determined by a total NO test kit (Beyotime). The content of NOS in the heart of the mice was determined with an NOS test kit (Beyotime). The content of eNOS was calculated by the difference between the measured values before and after adding the eNOS inhibitor L-NAME (Beyotime).

Where [9] appears, read: blank administration group = 100, 150 mg/kg twice a day, 10 weeks.
Setting [10] is: serum, high-fat diet 10 weeks, intragastric 150 mg/kg twice a day.

Like-named read-outs stand apart in the source and are kept apart here.

For the compound `COc1cc(OC)c2c(=O)[nH]c(-c3cc(C)c(OCCOC(=O)CCC(=O)OCC(CO[N+](=O)[O-])(CO[N+](=O)[O-])CO[N+](=O)[O-])c(C)c3)nc2c1` [Compound H106, 2-[4-(5,7-dimethoxy-4-oxo-3,4-dihydro-quinazolin-2-yl)-2,6-dimethyl-phenoxy]-ethyl 3-(nitroxy)-2,2-di((nitroxy)methyl) propyl succinate], the “Amount of Released No” value in data set [1] was determined as 2.56 µM. Moreover, the “Upregulation of Apoa-I Mrna Level” value in data set [2] is on record as “Active”.
Take `COc1cc(OC)c2c(=O)[nH]c(-c3cc(C)c(OCCOC(=O)CCC(CO[N+](=O)[O-])O[N+](=O)[O-])c(C)c3)nc2c1` (centres unmarked) [Compound H108, 2-[4-(5,7-dimethoxy-4-oxo-3,4-dihydro-quinazolin-2-yl)-2,6-dimethyl-phenoxy]-ethyl 4,5-dinitroxy-pentanoate]: in data set [1], the “Amount of Released No” value amounted to 0.33 µM. In addition, the “Upregulation of Apoa-I Mrna Level” value in data set [2] is recorded as “Active”. For the same compound, the “Content of Tested Substance (n = 2)” value in data set [3] (0 min) was 100.0; in data set [3] (10 min), 101.5; in data set [3] (30 min), 95.5; in data set [3] (60 min) it was 93.8; in data set [3] (120 min) it was 85.3; in data set [4] (0 min) it was 100.0. In addition, the “Content of Tested Substance (n = 2)” value was 0.5 in data set [4] (10 min), 0.3 in data set [4] (30 min), 1.7 in data set [4] (60 min) and 0.3 in data set [4] (120 min). Besides, in data set [3] (within 2 h), the “stability in human plasma” value is listed as “good stability”.
`COc1cc(OC)c2c(=O)[nH]c(-c3cc(C)c(OCCOC(=O)CNC(=O)CCCO[N+](=O)[O-])c(C)c3)nc2c1` [Compound H109, 2-[4-(5,7-dimethoxy-4-oxo-3,4-dihydro-quinazolin-2-yl)-2,6-dimethyl-phenoxy]-ethyl (4-nitroxy-butyrylamido)-acetate]: in data set [1], the “Amount of Released No” value is 1.49 µM. In addition, the “Upregulation of Apoa-I Mrna Level” value in data set [2] is recorded as “Active”.
For `COc1cc(OC)c2c(=O)[nH]c(-c3cc(C)c(OCCOC(=O)CC(N)C(=O)OCC(CO[N+](=O)[O-])O[N+](=O)[O-])c(C)c3)nc2c1.Cl` (centres unmarked) [Compound H118, 1-(2,3-dinitroxy-propyl) 4-{2-[4-(5,7-dimethoxy-4-oxo-3,4-dihydro-quinazolin-2-yl)-2,6-dimethyl-phenoxy]-ethyl}2-amino-succinate hydrochloride], in data set [1], the “Amount of Released No” value was 1.74 µM. Further, in data set [2], the “Upregulation of Apoa-I Mrna Level” value is recorded as “Active”. In addition, the “release of prototype compound H130 after administration” value in data set [5] is listed as “can be rapidly released”. For the same compound, the “AUCRatio (Dosage Calibration)” value in data set [5] (iv, 1 mg/kg) is 19.2%; in data set [5] (po, 5 mg/kg), 14.1%.
With `COc1cc(OC)c2c(=O)[nH]c(-c3cc(C)c(OCCO)c(C)c3)nc2c1` [Compound H130, 2-(4-(2-hydroxyethoxy)-3,5-dimethylphenyl)-5,7-dimethoxyquinazoline-4(3H)-one, reference compound], in data set [6] (setting [9]), the “Aorta eNOS” value turned out to be 105%, the ApoA1 amounted to 130%, the “Heart eNOS” value is reported as 115% and the “Serum NO” value amounted to 108%. Further, the “Serum eNOS” value in data set [6] (setting [9]) is reported as 107%. In data set [6] (setting [10]), this compound returned an HDL-C of 86 ± 13 mg/dL, an LDL-C of 273 ± 33 mg/dL and a TC of 1005 ± 44 mg/dL. Besides, in data set [1], the “Amount of Released No” value is -1.03 µM. For the same compound, the “Molar Quantities of N2O/Sample” value in data set [7] (PBS pH 7.4, 37° C., argon, 90 min) was −0.15%. For the same compound, in data set [7] (within 1.5 h), the HNO release detected result is “no HNO release can be detected”. In data set [8], the “Heart eNOS” value amounted to 123% and the “Serum NO” value is 111%.
